Measurements published in US8492374B2, “Azaazulene compounds” (Industrial Technology Research Institute, priority 2009, dated 2013).

Tests used:
FLT-3 kinase = biological target: T1, FLT-3 kinase (Homo sapiens, UniProt P36888); test: FLT-3 kinase DELFIA assay (HTScan FLT-3 Kinase Assay Kit); type: biochemical; conditions: 20 uM ATP; for inhibition at 0.1 µM: 0.1 uM compound; for inhibition at 1 µM: 1 uM compound
T1 construct: human FLT-3 (Arg571-Ser993); GST (N); purchased Cell Signaling Technology HTScan FLT-3 Kinase Assay Kit; host or cells: baculovirus expression system
T1 sequence (P36888 571-993): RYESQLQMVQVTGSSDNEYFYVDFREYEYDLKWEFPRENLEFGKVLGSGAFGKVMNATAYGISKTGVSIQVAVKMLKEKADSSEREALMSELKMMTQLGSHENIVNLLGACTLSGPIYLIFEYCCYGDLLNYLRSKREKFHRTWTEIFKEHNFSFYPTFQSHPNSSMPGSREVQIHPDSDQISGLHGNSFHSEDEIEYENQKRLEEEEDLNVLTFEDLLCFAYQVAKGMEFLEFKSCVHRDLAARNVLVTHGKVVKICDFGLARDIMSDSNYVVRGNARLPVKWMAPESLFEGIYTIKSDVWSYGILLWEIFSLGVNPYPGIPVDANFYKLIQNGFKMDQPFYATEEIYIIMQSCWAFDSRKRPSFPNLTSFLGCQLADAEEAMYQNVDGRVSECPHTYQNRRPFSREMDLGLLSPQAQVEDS
Protocol: Azaazulene Compounds of this invention were treated for their efficacy in inhibiting activities of FLT-3, c-KIT and KDR kinases by biochemical DELFIA (Dissociation Enhanced Lanthanide FIA) assays according to the procedure described below. The assays were conducted by, Division of Cell Engineering, Biomedical Engineering Research Laboratories, Industrial Technology Research Institute, Bldg. 53, 195, sec. 4, Chung Hsing Rd. Chutung, Hsinchu, Taiwan 310, R.O.C.
The FLT-3 assay was conducted following the protocol described in Protocol for HTScang FLT-3 Kinase Assay Kit (Cell Signaling Technology®).

[1] = test system: MV4-11 (FLT3-ITD) cell line; test: In vitro cell activity assay (MTT cell viability, 72 hours); type: cell-based; conditions: Homo sapiens, 72 hours at 37° C., 10,000 cells per well, read-out: IC50 against MV4-11
Protocol: Human MV4-11 (FLT3-ITD) cell line was obtained from American Tissue Culture Collection (ATCC number: CRL-9591). The cell line was cultured with RPMI 1640 containing 10% fetal bovine serum, 1 mmol/L sodium pyruvate and 10 mmol/L HEPES (pH 7.4). The cell was grown and maintained in a humidified atmosphere at 37° C. and 5% carbon dioxide.
MV4-11 cell was plated in 96-well microtiter plates (10,000 cells per well) and serial dilutions of indicated compounds were added. At the end of the incubation period (72 hours at 37° C.), cell viability was determined by a tetrazolium dye, MTT (3-(4,5-dimethylthiazol-2-yl)-2,5-diphenyl tetrazolium bromide) (Promega, Madison, Wis.). The formazan crystals were dissolved by DMSO, and the absorbance at a wavelength of 600 nm was recorded using an ELISA plate reader. IC50 values were calculated using nonlinear regression and defined as the concentration needed for a 50% reduction in absorbance of treated versus untreated control cells.

| SMILES | inhibition at 0.1 µM (FLT-3 kinase) | inhibition at 1 µM (FLT-3 kinase) | IC50 [1] |
| --- | --- | --- | --- |
| CS(=O)(=O)N1CCN(c2ccc3[nH]c(-c4c5cccccc-5[nH]c4=O)nc3c2)CC1 [Compound B57] | 29.5% | 81.5% | 104 nM |
| CN(C)c1ccc(CN2CCN(c3ccc4[nH]c(-c5c6cccccc-6[nH]c5=O)nc4c3)CC2)cc1 [Compound B45] | 27.3% | 77% | 318 nM |
| O=c1[nH]c2cccccc-2c1-c1nc2cc(Cl)cnc2[nH]1 [Compound B10] | 8.9% | 20.3% | 1000 to 5000 nM |
| CN1CCCN(C(=O)c2ccc3[nH]c(-c4c5cccccc-5[nH]c4=O)nc3c2)CC1 [Compound B74] | 27.1% | 64% | 163 nM |
| COc1ccccc1NC(=O)Nc1ccc2[nH]c(-c3c4cccccc-4[nH]c3=O)nc2c1 [Compound B137] | 14.3% | 19% | 50 to 100 nM |
| CN1CCN(C2CCN(c3ccc4[nH]c(-c5c6cccccc-6[nH]c5=O)nc4c3)CC2)CC1 [Compound B105] | 38.7% | 86% | 177 nM |
| O=c1[nH]c2cccccc-2c1-c1nc2cc(N3CCN(c4ncccc4Cl)CC3)ccc2[nH]1 [Compound B66] | 20.3% | 55.5% | 466 nM |
| CN1CCN(S(=O)(=O)c2ccc3[nH]c(-c4c5cccccc-5[nH]c4=O)nc3c2)CC1 [Compound B112] | 9.5% | 21.3% | 1000 to 5000 nM |
| O=Cc1ccc(N2CCN(c3ccc4[nH]c(-c5c6cccccc-6[nH]c5=O)nc4c3)CC2)o1 [Compound B59] | 55.6% | 96.1% | 146 nM |
| O=c1[nH]c2cccccc-2c1-c1nc2cc(N3CCCNCC3)ccc2n1CCF [Compound B79] | 22.3% | 36.6% | 346 nM |
| O=c1[nH]c2cccccc-2c1-c1nc2cc(N3CCN(CCF)CC3)ccc2[nH]1 [Compound B38] | 21.8% | 69.2% | 118 nM |
| O=C(Nc1ccccc1)N1CCN(c2ccc3[nH]c(-c4c5cccccc-5[nH]c4=O)nc3c2)CC1 [Compound B55] | 45.2% | 93.2% | 93.8 nM |
| O=c1[nH]c2cccccc-2c1-c1nc2cc(N3CCNCC3)ccc2[nH]1 [Compound B22] | 29.1% | 83.9% | 42.9 nM |
| O=c1[nH]c2cccccc-2c1-c1nc2cc(N3CCN(c4ccncc4)CC3)ccc2[nH]1 [Compound B60] | 71.7% | 99.1% | 5.9 nM |
| O=C(Nc1ccc2[nH]c(-c3c4cccccc-4[nH]c3=O)nc2c1)Nc1ccccc1C(F)(F)F [Compound B131] | 7.9% | 7.3% | 1000 to 5000 nM |
| O=c1[nH]c2cccccc-2c1-c1nc2cc(-n3ccnc3)ccc2[nH]1 [Compound B115] | 25.4% | 72.7% | 306 nM |
| O=C(Nc1ccc(N2CCCC2)cn1)c1ccc2[nH]c(-c3c4cccccc-4[nH]c3=O)nc2c1 [Compound B73] | 23.7% | 22.3% | ~1000 nM |
| CCC1CCN(c2ccc3[nH]c(-c4c5cccccc-5[nH]c4=O)nc3c2)CC1 [Compound B106] | 24.2% | 76.2% | 315 nM |
| O=c1[nH]c2cccccc-2c1-c1cn2cccnc2n1 [Compound B12] | 4.5% | 1.6% | > 5000 nM |
| O=c1[nH]c2cccccc-2c1-c1nc2cc(N3CCN(c4cnccn4)CC3)ccc2[nH]1 [Compound B69] | 29.3% | 77.3% | 100 to 500 nM |
| O=c1[nH]c2cccccc-2c1-c1nc2cc(N3CCN(c4c(F)cncc4F)CC3)ccc2[nH]1 [Compound B61] | 17.7% | 74.3% | 270 nM |
| O=c1[nH]c2cccccc-2c1-c1nc2cc(N3CCN(C[C@@H](O)CO)CC3)ccc2[nH]1 [Compound B40] | 38.2% | 88.1% | 72.3 nM |

| SMILES | inhibition at 0.1 µM (FLT-3 kinase) | inhibition at 1 µM (FLT-3 kinase) | IC50 [1] |
| --- | --- | --- | --- |
| O=c1[nH]c2cccccc-2c1-c1nc2cc(N3CCN(c4ccccn4)CC3)ccc2[nH]1 [Compound B64] | 29.5% | 79.2% | 250 nM |
| O=C(Nc1cc(C(F)(F)F)cc(C(F)(F)F)c1)Nc1ccc2[nH]c(-c3c4cccccc-4[nH]c3=O)nc2c1 [Compound B134] | 36.8% | 57.3% | 670 nM |
| CCN(CC)CCCCn1c2cccccc-2c(-c2nc3cc(N4CCN(C)CC4)ccc3[nH]2)c1=O [Compound B32] | 8% | 8.1% | 1000 to 5000 nM |
| O=c1[nH]c2cccccc-2c1-c1nc2cc(N3CCN(CCCF)CC3)ccc2[nH]1 [Compound B39] | 24.3% | 78.6% | 62.2 nM |
| O=c1[nH]c2cccccc-2c1-c1nc2cc(N3CCOCC3)ccc2[nH]1 [Compound B111] | 24.5% | 75% | 169 nM |
| O=c1[nH]c2cccccc-2c1-c1nc2cc(N3CCN(S(=O)(=O)CCCl)CC3)ccc2[nH]1 [Compound B58] | 35.7% | 83.8% | 67.2 nM |
| N#Cc1ccc2[nH]c(-c3c4cccccc-4[nH]c3=O)nc2c1 [Compound B19] | 14.7% | 28.6% | 1000 to 5000 nM |
| O=c1[nH]c2cccccc-2c1-c1cn2ccc(Cl)cc2n1 [Compound B16] | 4.8% | 16.5% | > 5000 nM |
| O=C(c1ccccc1)c1ccc2[nH]c(-c3c4cccccc-4[nH]c3=O)nc2c1 [Compound B114] | 10% | 16.3% | 1000 to 5000 nM |
| O=c1[nH]c2cccccc-2c1-c1nc2cc(N3CCCN(c4cnccn4)CC3)ccc2[nH]1 [Compound B99] | 17% | 51.8% | 600 nM |
| CC1CN(c2ccc3[nH]c(-c4c5cccccc-5[nH]c4=O)nc3c2)CC(C)N1 (stereo not drawn) [Compound B24] | 19.1% | 71.5% | 75 nM |
| CN1CCN(c2cc3nc(-c4c5cccccc-5[nH]c4=O)[nH]c3cc2F)CC1 [Compound B50] | 25.1% | 79.6% | 50.7 nM |
| CS(=O)(=O)N1CCCN(c2ccc3[nH]c(-c4c5cccccc-5[nH]c4=O)nc3c2)CC1 [Compound B90] | 23% | 59.2% | 504 nM |
| CCOCC1CCN(c2ccc3[nH]c(-c4c5cccccc-5[nH]c4=O)nc3c2)CC1 [Compound B109] | 17.3% | 35.2% | ~1000 nM |
| O=c1[nH]c2cccccc-2c1-c1nc2cc(N3CCCN(c4ncccn4)CC3)ccc2[nH]1 [Compound B98] | 17.8% | 69.5% | 418 nM |
| O=c1[nH]c2cccccc-2c1-c1nc2cc(N3CCN(c4ncccn4)CC3)ccc2[nH]1 [Compound B68] | 39.1% | 80.7% | 234 nM |
| CN1CCCN(c2ccc3[nH]c(-c4c5cccccc-5[nH]c4=O)nc3c2)CC1 [Compound B77] | 47.1% | 94.3% | 39.2 nM |
| O=c1[nH]c2cccccc-2c1-c1nc2cc(N3CCN(c4cccnc4)CC3)ccc2[nH]1 [Compound B63] | 18.9% | 33.4% | 473 nM |
| O=CN1CCN(c2ccc3[nH]c(-c4c5cccccc-5[nH]c4=O)nc3c2)CC1 [Compound B54] | 46% | 91.6% | 74 nM |
| Cc1ccc(N2CCCN(c3ccc4[nH]c(-c5c6cccccc-6[nH]c5=O)nc4c3)CC2)nn1 [Compound B100] | 9.1% | 20.2% | 1000 to 5000 nM |
| CN1CCN(c2ccc3[nH]c(-c4c5cccccc-5[nH]c4=O)nc3c2F)CC1 [Compound B51] | 20.6% | 66.6% | 99.1 nM |
